Reference: the NIST ThermoML archive (doi:10.1016/j.jct.2014.01.028)
Numbers after ± are expanded uncertainties.

Settings: for electrical conductivity / mass density / viscosity: 101.33 kPa, Liquid; for electrical conductivity: Alternating current cell with electrodes; for mass density: Pycnometric method; for viscosity: Capillary tube (Ostwald / Ubbelohde) method; for Glass transition temperature: DTA

electrical conductivity (293.15 K)	mass density (293.15 K)	electrical conductivity (303.15 K)	viscosity (303.15 K)	mass density (303.15 K)	electrical conductivity (313.15 K)	viscosity (313.15 K)	mass density (313.15 K)	electrical conductivity (323.15 K)	viscosity (323.15 K)	mass density (323.15 K)	electrical conductivity (333.15 K)	viscosity (333.15 K)	mass density (333.15 K)	electrical conductivity (343.15 K)	viscosity (343.15 K)	mass density (343.15 K)	Glass transition temperature	viscosity (293.15 K)	Structure (SMILES)
0.0266 ± 0.0008 S/m	1177.4 ± 3.7 kg/m3	0.0686 ± 0.0022 S/m	3058 ± 220 mPa·s	1172.8 ± 3.7 kg/m3	0.146 ± 0.0047 S/m	1003 ± 64 mPa·s	1166.9 ± 3.7 kg/m3	0.283 ± 0.009 S/m	427.1 ± 22 mPa·s	1158.7 ± 3.7 kg/m3	0.498 ± 0.016 S/m	206.3 ± 9.1 mPa·s	1154.3 ± 3.7 kg/m3	0.955 ± 0.03 S/m	111.5 ± 4.6 mPa·s	1148.9 ± 3.7 kg/m3	-54.34 ± 2 °C		C[n+]1ccn(CCCCn2cc[n+](C)c2)c1.c1c[n-]cn1.c1c[n-]cn1
0.0111 ± 0.00035 S/m	1210.8 ± 3.9 kg/m3	0.0309 ± 0.00098 S/m	6306 ± 530 mPa·s	1206 ± 3.9 kg/m3	0.0684 ± 0.0022 S/m	2538 ± 180 mPa·s	1200 ± 3.9 kg/m3	0.145 ± 0.0046 S/m	854.7 ± 52 mPa·s	1191.5 ± 3.9 kg/m3	0.254 ± 0.0081 S/m	440.2 ± 22 mPa·s	1185.7 ± 3.9 kg/m3	0.425 ± 0.013 S/m	145.1 ± 8.2 mPa·s	1178.9 ± 3.9 kg/m3	-56.18 ± 2 °C		C[n+]1ccn(CCn2cc[n+](C)c2)c1.c1c[n-]cn1.c1c[n-]cn1
0.27 ± 0.0086 S/m	1113.5 ± 3.3 kg/m3	0.487 ± 0.015 S/m	87.9 ± 3.5 mPa·s	1106.7 ± 3.3 kg/m3	0.804 ± 0.026 S/m	42.4 ± 1.6 mPa·s	1100.3 ± 3.3 kg/m3	1.24 ± 0.039 S/m	22.9 ± 0.9 mPa·s	1092.5 ± 3.3 kg/m3	1.69 ± 0.054 S/m	14.8 ± 0.5 mPa·s	1086.3 ± 3.3 kg/m3	2.11 ± 0.067 S/m	8.6 ± 0.3 mPa·s	1079.7 ± 3.3 kg/m3	-60.01 ± 2 °C	191.8 ± 8.1 mPa·s	CCn1cc[n+](C)c1.c1c[n-]cn1 [1-ethyl-3-methylimidazolium imidazolide]
0.000168 ± 5e-06 S/m	1301 ± 4.5 kg/m3	0.000636 ± 2e-05 S/m	8896 ± 790 mPa·s	1295.7 ± 4.5 kg/m3	0.00229 ± 7e-05 S/m	3632 ± 280 mPa·s	1289.8 ± 4.5 kg/m3	0.00646 ± 0.00021 S/m	1255 ± 82 mPa·s	1283.7 ± 4.5 kg/m3	0.0174 ± 0.00055 S/m	615.2 ± 34 mPa·s	1278.1 ± 4.5 kg/m3	0.0391 ± 0.0013 S/m	290.4 ± 14 mPa·s	1272.3 ± 4.4 kg/m3	-54.01 ± 2 °C		C[n+]1ccn(CCO)c1.c1c[n-]cn1 [1-(2-hydroxyethyl)-3-methylimidazolium imidazolide]
0.0737 ± 0.0023 S/m	1085.3 ± 3.2 kg/m3	0.15 ± 0.0048 S/m	272.6 ± 13 mPa·s	1079.9 ± 3.2 kg/m3	0.284 ± 0.009 S/m	140 ± 6 mPa·s	1073.2 ± 3.2 kg/m3	0.481 ± 0.015 S/m	76.8 ± 2.9 mPa·s	1066.5 ± 3.2 kg/m3	0.713 ± 0.023 S/m	47.5 ± 1.7 mPa·s	1060.4 ± 3.2 kg/m3	1.01 ± 0.032 S/m	34 ± 1.2 mPa·s	1054.1 ± 3.2 kg/m3	-56.01 ± 2 °C	533.3 ± 28 mPa·s	CCCCn1cc[n+](C)c1.c1c[n-]cn1 [1-butyl-3-methylimidazolium imidazolide]
0.0842 ± 0.0027 S/m	1148.4 ± 3.5 kg/m3	0.166 ± 0.0053 S/m	98.4 ± 4 mPa·s	1143.1 ± 3.5 kg/m3	0.304 ± 0.0097 S/m	54.5 ± 2 mPa·s	1137.5 ± 3.5 kg/m3	0.504 ± 0.016 S/m	32.1 ± 1.2 mPa·s	1131.8 ± 3.5 kg/m3	0.738 ± 0.024 S/m	19.9 ± 0.7 mPa·s	1126.3 ± 3.5 kg/m3	1.09 ± 0.035 S/m	13.7 ± 0.5 mPa·s	1120.8 ± 3.5 kg/m3	-55.02 ± 2 °C	220 ± 9.6 mPa·s	C[n+]1ccn(CCCN)c1.c1c[n-]cn1 [1-(3-aminopropyl)-3-methylimidazolium imidazolide]
